# Assay results taken from patent US20150073033A1, “BIOMARKERS FOR CANCER CHARACTERIZATION AND TREATMENT” (Board of Regents, The University of Texas System, priority 2011, published 2015).
# “Also recorded” adds a separate entry of the source. Read-outs that look alike come from different tables or passages of the source.
# Columns and labels:
# [1] = test system: PKM2 expression; test: EGF-induced PKM2 upregulation, immunoblotting; format: cell-based, human; conditions: U87/EGFR cells; pretreatment before EGF 100 ng/mL 12 h; AG1478 1 μM, cycloheximide 200 μg/mL, Bis-I 2 μM, Go6976 2 μM, NF-κB activation inhibitor II 7 μM, AKT inhibitor 10 μM, TBB 50 μM, U73122 2 μM
# Experimental: FIG. 56: EGFR activation results in upregulation of PKM2 expression. A-D: Immunoblotting analyses were performed with or without the indicated antibodies. A: The indicated cell lines were treated with EGF (100 ng/mL) for 12 h. B: U87 cells were stably transfected with plasmids expressing EGFR or EGFRvIII. […] D: U87/EGFR cells were pretreated with or without cycloheximide (CHX) (200 μg/mL) for 30 min before EGF (100 ng/mL) treatment for 12 h. […] The relative mRNA levels of PKM2 and PKM1 were normalized to the levels of untreated cells and β-actin mRNA. Data represent the mean±SD of three independent experiments.
# FIG. 57: EGF increases PKM2 expression in a PKC- and NF-κB-dependent manner. A-D, H: Immunoblotting analyses were performed with the indicated antibodies. […] ChIP assay was performed with an anti-RelA antibody for immunoprecipitation, followed by PCR with PKM promoter-specific primers. F: An oligonucleotide containing the putative WT or mutated NF-κB binding sequence was labeled using [γ-^32P] ATP and T4 polynucleotide kinase. […] Samples were subjected to 5% polyacrylamide gel electrophoresis, and the dried gel was exposed to x-ray film. […] The relative levels of luciferase activity were normalized to the levels of untreated cells and to the levels of luciferase activity of the Renilla control plasmid. Data represent the mean±standard deviation of three independent experiments.
# FIG. 58: PKCε downstream from PLCγ1, rather than TAK1, activates IKKβ and subsequently increases PKM2 expression. […] B: U87/EGFR cells were treated with TNFα (10 ng/mL) for the indicated time. C: U87/EGFR cells were treated with or without EGF (100 ng/mL) or TNFα (10 ng/mL) for 4 h. […] HIF1α was immunodepleted from the cell lysates by incubation with an anti-HIF1α antibody, which was followed by a ChIP assay with an anti-FLAG antibody for immunoprecipitation of FLAG-RelA and PCR analysis with PKM promoter-specific primers. […] F: 293T cells were transiently transfected with constitutively active (+) or kinase-dead (−) PKC mutants. […] H, I: 293T cells were transiently transfected with the indicated plasmids.
# [2] = molecular target: T1, PKCε (Homo sapiens, UniProt Q02156); test: TPA-induced, PKC kinase activity-dependent degradation of PKCε; format: cell-based; conditions: U87/EGFR cells; Bis-I 2 μM 30 min before TPA 8 h
# T1 construct: endogenous in cells; host or cells: U87/EGFR
# T1 sequence (Q02156 1-737): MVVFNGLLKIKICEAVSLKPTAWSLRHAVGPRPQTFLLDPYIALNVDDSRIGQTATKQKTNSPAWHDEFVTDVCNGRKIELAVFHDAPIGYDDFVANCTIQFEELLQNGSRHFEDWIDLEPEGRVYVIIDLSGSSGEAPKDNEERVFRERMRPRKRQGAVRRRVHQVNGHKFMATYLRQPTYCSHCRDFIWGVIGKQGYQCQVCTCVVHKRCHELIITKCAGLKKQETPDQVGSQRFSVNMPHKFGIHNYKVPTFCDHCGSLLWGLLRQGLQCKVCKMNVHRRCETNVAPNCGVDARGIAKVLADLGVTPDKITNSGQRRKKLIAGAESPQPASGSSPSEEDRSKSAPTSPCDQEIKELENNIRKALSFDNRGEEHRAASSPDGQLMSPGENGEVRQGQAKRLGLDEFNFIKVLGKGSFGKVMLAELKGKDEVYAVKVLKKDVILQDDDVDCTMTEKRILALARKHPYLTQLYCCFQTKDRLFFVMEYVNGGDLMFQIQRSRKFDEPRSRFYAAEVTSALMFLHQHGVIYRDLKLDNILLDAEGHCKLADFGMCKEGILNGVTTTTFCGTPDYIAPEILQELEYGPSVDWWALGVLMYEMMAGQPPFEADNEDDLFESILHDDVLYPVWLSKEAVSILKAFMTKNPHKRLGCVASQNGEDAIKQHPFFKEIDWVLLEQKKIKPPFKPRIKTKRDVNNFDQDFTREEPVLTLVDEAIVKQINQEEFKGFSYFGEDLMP
# Experimental: (§1) FIG. 63: PKC, NF-κB, PI3-K, and CK2 are inhibited by their inhibitors. A, B: U87/EGFR cells were treated with Bis-I (2 μM) (A) or Go6976 (2 μM) (B) for 30 min before 12-O-tetradecanoylphorbol-13-acetate (TPA) ([…]) for 8 h. Immunoblotting analyses were performed with the indicated antibodies. C: U87/EGFR cells transiently expressing a luciferase reporter vector containing the IκBα promoter were pretreated with or without NF-κB activation inhibitor II (7 μM) for 30 min before TNFα (10 ng/mL) for 8 h. The relative levels of luciferase activity were normalized to the levels of untreated cells and to the levels of luciferase activity of the Renilla control plasmid. Data represent the mean±standard deviation of three independent experiments. […] Immunoblotting analyses were performed with the indicated antibodies.
# [3] = molecular target: T2, PKCα (Homo sapiens, UniProt P17252); test: TPA-induced, PKC kinase activity-dependent degradation of PKCα; format: cell-based; conditions: U87/EGFR cells; Go6976 2 μM 30 min before TPA 8 h
# T2 construct: endogenous in cells; host or cells: U87/EGFR
# Experimental: as §1
# [4] = test system: AKT; test: EGF-induced AKT phosphorylation, immunoblotting; format: cell-based, human; conditions: U87/EGFR cells; LY290042 30 μM or AKT inhibitor 10 μM 30 min before EGF
# Experimental: Immunofluorescence analyses of endogenous PKM2 or transiently expressed FLAG-PKM1 were performed with the indicated antibodies. […] Immunoblotting analyses were performed with the indicated antibodies. […] Immunoblotting analyses were performed with the indicated antibodies. […] Immunoblotting analyses were performed with the indicated antibodies.
# as §1
# [5] = test system: PKM2; test: EGF-induced nuclear translocation of PKM2 (cell fractionation, immunoblotting, immunofluorescence); format: cell-based, human
# Experimental: Immunoblotting analyses (b, b) were performed with the indicated antibodies. Nuclear PCNA and cytoplasmic tubulin were used as controls. a: The indicated cells were immunostained with an anti-PKM2 antibody.
# Immunoblotting and immunoprecipitation analyses were performed with the indicated antibodies. a: Nuclear fractions were prepared from U87/EGFR cells pretreated with LY290042 (30 μM), SU6656 (4 μM), SP600125 (25 μM), and U0126 (20 μM) for 30 min before EGF (100 ng/mL) for 6 h. Nuclear PCNA and cytoplasmic tubulin were used as controls. b: U87/EGFR cells were pretreated with or without U0126 (20 μM) for 30 min before EGF (100 ng/mL) for 6 h. Immunofluorescence analyses were performed with the indicated antibodies. Nuclei were stained with Hoechst 33342 (blue). c: U251 cells were stably transfected with a vector with or without expressing FLAG-ERK2 K52R (left panel) or transiently transfected with vectors expressing MEK1 Q56P and indicated FLAG-tagged ERK2 proteins (right panel). The cells were treated with or without EGF (100 ng/mL) for 6 h, and the total cell lysates and nuclear fractions were prepared. d: FLAG-PKM2 or FLAG-PKM1 was immunoprecipitated with an anti-FLAG antibody from U87/EGFR cells treated with or without EGF (100 ng/mL) for 30 min. e: Bacterially-purified GST-ERK2 immobilized on glutathione agarose beads was mixed with or without purified His-PKM2. GST pull-down analyses were performed. Ten percent of total His-PKM2 was used as an input. f: U87/EGFR cells transfected with vectors expressing the indicated FLAG-tagged ERK proteins were treated with or without EGF (100 ng/mL) for 30 min. g: U87/EGFR cells expressing the indicated FLAG-PKM2 proteins were treated with or without EGF (100 ng/mL) for 30 min.
# (§2) Immunofluorescence analyses of endogenous PKM2 or transiently expressed FLAG-PKM1 were performed with the indicated antibodies. […] Immunoblotting analyses were performed with the indicated antibodies. Nuclear PCNA was used as controls for immunoblotting analyses. c: An equal volume of cytosolic and nuclear fractions were prepared from U87/EGFR cells treated with or without EGF (100 ng/mL) for 6 h. Ten microliters of protein from cytosolic and nuclear fractions were used for immunoblotting analyses with the indicated antibodies. d: Nuclear fractions were prepared from U251 cells pretreated with LY290042 (30 μM), SU6656 (4 μM), SP600125 (25 μM), and U0126 (20 μM) for 30 min before EGF (100 ng/mL) for 6 h. Immunoblotting analyses were performed with the indicated antibodies. Nuclear PCNA and cytoplasmic tubulin were used as controls. e: U87/EGFR cells were pretreated with LY290042 (30 μM), SU6656 (4 μM), SP600125 (25 μM), and U0126 (20 μM) for 30 min before EGF (100 ng/mL) for 6 h. Immunoblotting analyses were performed with the indicated antibodies.
# Cytosolic and nuclear fractions were prepared. Immunoblotting analyses were performed with the indicated antibodies. b: U87/EGFR cells with depleted endogenous PKM2 and reconstituted expression of RNAi-resistant WT rPKM2 or rPKM2 S37A were treated with or without EGF (100 ng/mL) for 6 h. Total cell lysates (left panel) and nuclear fractions (right panel) were prepared.
# [6] = test system: PKM2 S37; conditions: U87/EGFR cells; U0126 20 μM 30 min before EGF 100 ng/mL 30 min
# Experimental: FIG. 43: ERK2 phosphorylates PKM2 S37. […] Immunofluorescence analyses were performed with an anti-FLAG antibody (f). Nuclei were stained with Hoechst 33342 (blue).
# (§3) Extraction of proteins with a modified buffer from cultured cells was followed by immunoprecipitation and immunoblotting with corresponding antibodies, as described previously (Lu et al., 1998).
# [7] = test system: U87 cells; conditions: no-serum DMEM, U0126 20 μM 30 min before PDGF-AA 50 ng/mL 20 h
# Experimental: (§4) Nuclear PCNA. Immunoblotting analyses were performed with the indicated antibodies. b: U87 cells were cultured in no-serum DMEM and treated with or without U0126 (20 μM) for 30 min before PDGF-AA (50 ng/mL) for 20 h. The media were collected for analysis of glucose consumption (left panel) or lactate production (right panel). Data represent the mean±SD of three independent experiments.
# Cells were seeded in culture dishes, and the medium was changed after 6 h with no-serum DMEM. Cells were incubated for 12-16 h, and the culture medium was then collected for measurement of glucose and lactate concentrations. Glucose levels were determined using a glucose (GO) assay kit (Sigma). Glucose consumption was the difference in glucose concentration compared with DMEM. Lactate levels were determined using a lactate assay kit (Eton Bioscience, San Diego, Calif.).
# [8] = test system: PKM2; conditions: U87 cells; U0126 20 μM 30 min before PDGF-AA 50 ng/mL 6 h
# Experimental: as §4
# [9] = test system: PIN1-PKM2 binding; conditions: U0126 20 μM 30 min before EGF 30 min
# Experimental: Immunoprecipitation and immunoblotting analyses were performed with the indicated antibodies. a: His-PIN1 immobilized on nickel agarose beads was incubated with lysate of U87/EGFR cells treated with or without U0126 (20 μM) for 30 min before EGF (100 ng/mL) stimulation for 30 min. b: U87/EGFR cells transiently expressing WT FLAG-PKM2 or FLAG-PKM2 S37A were treated with or without EGF (100 ng/mL) for 30 min. […] Data represent the mean±SD of three independent experiments. g: PIN1^−/− cells were reconstituted to express the indicated PIN1 proteins (left panel). The total cell lysates and nuclear fractions were prepared from the indicated cells treated with or without EGF (100 ng/mL) for 6 h (right panel). h: Total cell lysates and nuclear fractions of PIN1^−/− cells or PIN^−/− cells expressing FLAG-PKM2 S37D were prepared.
# as §3
# [10] = test system: ERK1/2; test: EGF-induced ERK1/2 phosphorylation, immunoblotting; format: cell-based, human; conditions: U87/EGFR cells; AG1478 1 μM or U0126 20 μM 30 min before EGF 6 h
# Experimental: as §2, §3
smiles,measurement,setting,value
CN(C)CCCn1cc(C2=C(c3c[nH]c4ccccc34)C(=O)NC2=O)c2ccccc21 [Bis-I],EGF-induced PKM2 upregulation/expression,[1],largely abrogated; also recorded: blocked
same,TPA-induced and PKC kinase activity-dependent degradation of PKCε,[2],successfully blocked
Cn1c2ccccc2c2c3c(c4c5ccccc5n(CCC#N)c4c21)CNC3=O [Go6976],TPA-induced and PKC kinase activity-dependent degradation of PKCα,[3],successfully blocked
O=c1cc(N2CCOCC2)oc2c(-c3ccccc3)cccc12 [LY290042],EGF-induced phosphorylation of AKT,[4],blocked
same,EGF-induced nuclear accumulation/translocation of PKM2,"[5]; U87/EGFR (and U251) cells, 30 min pretreatment before EGF 100 ng/mL, LY290042 30 μM, SU6656 4 μM, SP600125 25 μM, U0126 20 μM, AG1478 1 μM, cycloheximide 100 μg/mL",only inhibition of MEK/ERK abrogated
N#CC(=C(/N)Sc1ccccc1N)/C(C#N)=C(\N)Sc1ccccc1N [U0126],EGF-induced PKM2 S37 phosphorylation,[6],blocked
same,PDGF-induced glucose uptake,[7],blocked
same,PDGF-induced lactate production,[7],blocked
same,PDGF-induced nuclear translocation of PKM2,[8],blocked
same,EGF-increased binding of endogenous PIN1 to endogenous PKM2 (co-immunoprecipitation),[9]; U87/EGFR cells,blocked
same,EGF-induced binding of endogenous PKM2 to His-PIN1,[9]; lysate of U87/EGFR cells,abrogated
same,EGF-induced nuclear accumulation/translocation of PKM2,[5],abrogated; also recorded: blocked
same,EGF-induced phosphorylation of ERK1/2,[10],blocked
